Reference: patent US9284306B2, “(R)-Nifuratel, its use for the treatment of infections and synthesis of (R) and (S)-Nifuratel” (POLICHEM SA, priority 2012, dated 2016)
In brackets after ≈: the same amount, converted by molar mass.

Legend:
Atopobium vaginae = assay: MIC, agar dilution; format: cell-based; conditions: Fannyhessea vaginae
Protocol: (§1) Micrococcus pyogenes (ATCC 11631), Bacillus subtilis (ATCC 11774), Lactobacillus iners (ATCC 55195), Escherichia coli (ATCC 11775), Proteus mirabilis (ATCC 14153), Klebsiella pneumoniae (ATCC 10031), Shigella sonnei (ATCC 11060), Neisseria gonorrhoeae (ATCC 19424), Salmonella typhimurium (ATCC 14028) Salmonella paratyphi B (ATCC 10719), Helicobacter pylori (ATCC 43504) and several strains of Atopobium vaginae and Gardnerella vaginalis.
(§2) Strains were prepared from freeze-dried pellets. An isolation of the suspensions (to test the strains purity) and a strains massive growth were made by streaking microbial suspensions on agar media. The bacterial colonies on agar plates were collected with 3-5 mL of specific liquid medium+15% glycerol and then the aliquots were frozen at −80° C.
(§3) Compounds Minimal Inhibitory Concentration (MIC) was determined through broth micro-dilution susceptibility testing with a method developed following the National Committee for Clinical Laboratory Standards (CLSI) M07-A8 and M11-A7 references. Assays were carried out in specific media (Table 3). The tests were performed either following the broth microdilution assay or the agar dilution assay. Compounds stock solutions were made at 12.8 mg/mL in DMSO 100%. A series of twofold dilutions were then prepared using the strain specific broth. Final concentrations were from 0.125 μg/mL to 64 μg/mL at 1% DMSO. MIC is defined as the lowest concentration of antibacterial agent which prevent any visible growth.

Gardnerella vaginalis = assay: MIC, agar dilution; format: cell-based
Protocol: as §1, §2, §3

in vivo [1] = conditions: male, rat, po, 15 mg/kg
[2] = tested on: Lactobacillus iners ATCC 55195; assay: MIC, broth microdilution; format: cell-based; conditions: Lactobacillus iners, ATCC55195
Protocol: as §1, §2, §3

[3] = tested on: Shigella sonnei ATCC 11060; assay: MIC, broth microdilution; format: cell-based; conditions: ATCC11060
Protocol: as §1, §2, §3

[4] = tested on: Salmonella typhimurium ATCC 14028; assay: MIC, broth microdilution; format: cell-based; conditions: Salmonella enterica
Protocol: as §1, §2, §3

[5] = tested on: Micrococcus pyogenes ATCC 11631; assay: MIC, broth microdilution; format: cell-based; conditions: Staphylococcus aureus, ATCC11631
Protocol: as §1, §2, §3

[6] = tested on: Salmonella paratyphi B ATCC 10719; assay: MIC, broth microdilution; format: cell-based; conditions: Salmonella enterica
Protocol: as §1, §2, §3

[7] = tested on: Neisseria gonorrhoeae ATCC 19424; assay: MIC, broth microdilution; format: cell-based; conditions: Neisseria gonorrhoeae, ATCC19424
Protocol: as §1, §2, §3

[8] = tested on: Klebsiella pneumonia ATCC 10031; assay: MIC, broth microdilution; format: cell-based; conditions: Klebsiella pneumoniae, ATCC10031
Protocol: as §1, §2, §3

[9] = tested on: Proteus mirabilis ATCC 14153; assay: MIC, broth microdilution; format: cell-based; conditions: Proteus mirabilis, ATCC14153
Protocol: as §1, §2, §3

[10] = tested on: Escherichia coli ATCC 11775; assay: MIC, broth microdilution; format: cell-based; conditions: Escherichia coli, ATCC11775
Protocol: as §1, §2, §3

Bacillus subtilis = assay: MIC, broth microdilution; format: cell-based
Protocol: as §1, §2, §3

[11] = tested on: Helicobacter pylori ATCC 43504; assay: MIC, broth microdilution; format: cell-based; conditions: Helicobacter pylori, ATCC43504
Protocol: as §1, §2, §3

in vivo [12] = conditions: male, rat, iv, 2 mg/kg

CSCC1CN(/N=C/c2ccc([N+](=O)[O-])o2)C(=O)O1 (racemic) [Nifuratel racemate, Nifuratel]
MIC (Atopobium vaginae; CCUG38953): 0.125 µg/mL (≈ 0.438 µM) | MIC (Atopobium vaginae; CCUG39382): 0.25 µg/mL (≈ 0.876 µM) | MIC (Atopobium vaginae; CCUG42099): 0.5 µg/mL (≈ 1.75 µM) | MIC (Atopobium vaginae; CCUG43049): 0.25 µg/mL (≈ 0.876 µM) | MIC (Atopobium vaginae; CCUG44061): 0.5 µg/mL (≈ 1.75 µM) | MIC (Atopobium vaginae; CCUG44156): 0.5 µg/mL (≈ 1.75 µM) | MIC (Atopobium vaginae; CCUG48515): 1 µg/mL (≈ 3.51 µM) | MIC (Atopobium vaginae; CCUG55226): 1 µg/mL (≈ 3.51 µM) | MIC (Atopobium vaginae; CCUG55227): 0.25 µg/mL (≈ 0.876 µM) | MIC (Gardnerella vaginalis; ATCC14018, agar dilution, Gardnerella vaginalis ATCC 14018): 2 µg/mL (≈ 7.01 µM) | MIC (Gardnerella vaginalis; agar dilution, Gardnerella vaginalis C2): 8 µg/mL (≈ 28 µM) | MIC (Gardnerella vaginalis; agar dilution, Gardnerella vaginalis D2): 4 µg/mL (≈ 14 µM) | MIC (Gardnerella vaginalis; agar dilution, Gardnerella vaginalis E2): 2 µg/mL (≈ 7.01 µM) | MIC (Gardnerella vaginalis; agar dilution, Gardnerella vaginalis G2): 2 µg/mL (≈ 7.01 µM) | MIC (Gardnerella vaginalis; agar dilution, Gardnerella vaginalis H2): 1 µg/mL (≈ 3.51 µM) | MIC (Gardnerella vaginalis; agar dilution, Gardnerella vaginalis J2): 2 µg/mL (≈ 7.01 µM) | MIC (Gardnerella vaginalis; agar dilution, Gardnerella vaginalis K2): 4 µg/mL (≈ 14 µM) | AUC(0-t) (in vivo [1]): 20.3 ng·h/mL | Clast (in vivo [1]): 3 ng/mL | Cmax (in vivo [1]): 8 ng/mL | MRT (in vivo [1]): 109 min | Tlast (in vivo [1]): 240 min | Tmax (in vivo [1]): 30 min | half-life (in vivo [1]): 182 min | MIC [2]: 16 µg/mL (≈ 56.1 µM) | MIC [3]: 1 µg/mL (≈ 3.51 µM) | MIC [4]: 4 µg/mL (≈ 14 µM) | MIC [5]: 1 µg/mL (≈ 3.51 µM) | MIC [6]: 2 µg/mL (≈ 7.01 µM) | MIC [7]: 0.25 µg/mL (≈ 0.876 µM) | MIC [8]: 2 µg/mL (≈ 7.01 µM) | MIC [9]: 8 µg/mL (≈ 28 µM) | MIC [10]: 1 µg/mL (≈ 3.51 µM) | MIC (Bacillus subtilis): 0.5 µg/mL (≈ 1.75 µM) | MIC [11]: 0.125 µg/mL (≈ 0.438 µM) | AUC(0-inf) (in vivo [12]): 125 ng·h/mL | AUC(0-t) (in vivo [12]): 122 ng·h/mL | Clast (in vivo [12]): 5 ng/mL | Cmax (in vivo [12]): 555 ng/mL | MRT (in vivo [12]): 13 min | Tlast (in vivo [12]): 120 min | Tmax (in vivo [12]): 2 min | VSR (in vivo [12]): 4.5 L/kg | clearance (in vivo [12]): 267 mL/min/kg | half-life (in vivo [12]): 24 min
